Measurements: EPA's ToxValDB 9.5 (doi:10.2903/j.efsa.2018.5465)
Values after ≈ are worked out from the molar mass of the structure shown.

How the values were obtained:
Typhlodromus pyri = assay: LR50; higher = less toxic; details: acute; mortality
Canidae = details: chronic; duration: 1 years; Dog Other; clinical signs
Folsomia candida = details: chronic/long-term; duration: 28 days
Colinus virginianus = details: reproduction developmental
Apis mellifera = details: acute, mortality
Daphnia magna = details: chronic/long-term; duration: 21 days
Tagia sp. = details: chronic/long-term; duration: 56 days
Oncorhynchus mykiss = details: acute; duration: 96 hours; mortality
Coturnix japonica = details: acute; oral; mortality

SMILES: CCN(CC)C(=O)[C@@H](C)Oc1cccc2ccccc12 [(R)-N,N-Diethyl-2-(1-naphthyloxy)propionamide]
- LR50 (Typhlodromus pyri): > 4140 g/ha
- NOAEL (Canidae): 50 mg/kg-day
- NOEC (Folsomia candida): 47.7 mg/kg
- LD50 (Rattus norvegicus; acute, oral, mortality): > 2000 mg/kg-day
- NOAEL (Rattus norvegicus; chronic, duration: 2 years, body weight): 30 mg/kg-day
- NOAEL (Rattus norvegicus; subchronic, duration: 90 days, oral, hematological): 46 mg/kg-day
- NOAEL (Colinus virginianus): 309 mg/kg-day
- LD50 (Apis mellifera; dermal): > 110 µg/piece
- LD50 (Apis mellifera; oral, unspecified): > 110 µg/piece
- NOEC (Daphnia magna): 0.1 mg/L
- NOEC (Tagia sp.): 17.1 mg/kg
- LC50 (Oncorhynchus mykiss): 11.2 µg/mL (≈ 41.3 µM)
- LD50 (Coturnix japonica): > 2000 mg/kg-day
